Test system: NIH3T3
Test: Cytotoxicity against mouse NIH/3T3 cells assessed as cell viability after 48 hrs by MTT assay
Assay type: cell-based
Conditions: NIH3T3, 48 h

Structure (SMILES): Clc1ccc2nc(-c3ccc(Oc4c(-c5ccc(Br)cc5)nc5ccc(Cl)cc5c4-c4ccccc4)cc3)cc(-c3ccccc3)c2c1
- IC50: 333 µM

Structure (SMILES): Clc1ccc2nc(-c3ccc(Oc4c(-c5cccc(Br)c5)nc5ccc(Cl)cc5c4-c4ccccc4)cc3)cc(-c3ccccc3)c2c1
- IC50: 887 µM

— ChEMBL document CHEMBL1949623, “Camphorsulfonic acid catalysed facile tandem double Friedlander annulation protocol for the synthesis of phenoxy linked bisquinoline derivatives and discovery of antitubercular agents” (Bioorg Med Chem Lett, 2012)
